# Read-outs that look alike come from different tables or passages of the source.
# Columns and labels:
# Aspergillus fumigatus = test: Antifungal susceptibility testing, broth dilution (MIC/MFC); type: cell-based; details: Aspergillus fumigatus, read-out: MIC
# Outline: (§1)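 Tested against two isolates per species (one for C. glabrata). After MIC, fungicidal concentration determined by plating 0.1 μl from MIC and each higher concentration.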
# Trichophyton rubrum = test: as above; type: cell-based; details: in words
# Outline: as §1
# Candida glabrata = test: as above; type: cell-based; details: Nakaseomyces glabratus; C. glabrata; read-out: MIC
# Outline: as §1
# Candida albicans = test: as above; type: cell-based; details: Candida albicans; C. albicans 90028; read-out: MIC
# Outline: as §1
# [1] = test system: P388 murine leukemia cells; test: Cytotoxic effect in P388 cells; type: cell-based; details: Mus musculus, P388, read-out: IC50 (nM) P-388; Table 2
# Source text: The cytotoxic effects of phenylahistin, dehydrophenylahistin and various derivatives of dehydrophenylahistin were examined in P388 murine leukemia cells, HT-29 human colon cells, and PC-3 prostatic adenocarcinoma cells.
# [2] = test system: PC-3 prostatic adenocarcinoma cells; test: Tumor cytotoxicity assay, resazurin fluorescence, 48 h (Example 6); type: cell-based, human; details: Homo sapiens; Table 2; read-out: EC50 (nM) PC-3
# Method: 10× concentrated serial dilutions of the two compounds were prepared in appropriate culture medium for final concentrations ranging from 2.0×10^−5 M to 2.0×10^−10 M. Ten μl volumes of the 10× serial dilutions were added to the test wells in triplicate and the plates returned to the incubator for 48 hours.
# (§2) Following 48 hours of drug exposure 10 μl of 0.2 mg/ml resazurin (obtained from Sigma-Aldrich Chemical Co.) in Mg^2+, Ca^2+ free PBS was added to each well and the plates were returned to the incubator for 3-4 hours. […] Resazurin dye without cells was used to determine the background, which was subtracted from the data for all experimental wells. The data were analyzed using Prism software (GraphPad Software).
# PC-3, a human prostate adenocarcinoma, was maintained in F12K complete medium (F12K medium supplemented with 10% FBS; 2 mM Glutamine; 1% HEPES; and Pen/Strep at 100 IU/ml and 100 µg/ml, respectively).
# [3] = test system: Jurkat cells (human T cell leukemia line); test: DNA fragmentation (DNA laddering); type: cell-based
# Source text: A late stage characteristic of apoptosis is internucleosomal DNA cleavage that results in a distinctive ladder pattern that can be visualized by gel electrophoresis.
# HT-29 human colon cells = test: Tumor cytotoxicity assay, resazurin fluorescence, 48 h (Example 6); type: cell-based
# [4] = test system: Trichophyton mentagrophytes; test: Antifungal susceptibility testing, broth dilution (MIC/MFC); type: cell-based; details: in words
# Method: Specifically, disclosed compounds were evaluated alongside commercially available microtubulin inhibitors as well as recognized antifungal agents. […].
# Microorganisms against which these compounds were tested included: Candida albicans, Candida glabrata, Aspergillus fumigatus, Trichophyton rubrum, Trichophyton mentagrophytes, Epidermophyton floccosum. With the exception of Candida glabrata (one isolate), two isolates of each species were tested.
# Drug concentrations were 0.03-16 μg/ml for the investigational compounds, 0.015-8 μg/ml for itraconazole and griseofulvin.
# The minimum lethal concentration (MLC) was determined by plating […] from the MIC concentration and each concentration above the MIC. […] When a MIC was obtained, a minimum fungicidal concentration (MFC) was determined to assess the fungistatic/fungicidal nature of the compound. […] The compound is scored as fungistatic if the cells are able to resume growth and fungicidal if no regrowth is possible because the compound had killed the organisms.
# [5] = test system: MDA-231 human breast tumor; test: MDA-231 Human Breast Tumor Orthotopic Xenograft Model (mammary fat pad); type: in vivo, nude mice; details: Breast MDA-231 (1 study); Paclitaxel qdx5 alone
# Method: (§3) The animals used were: female nude mice (nu/ni) (MDA-231 study) or B6D2F1 (B16-F10 studies) mice between 5 and 6 weeks of age (˜20 g, Harlan); group size was 10 mice per group unless otherwise indicated.
# (§4) The cell lines used were: MDA-MB-231 human breast tumor and B16-F10 murine melanoma cells.
# (§5) NPI compounds were administered as monotherapy via the intraperitoneal route at the doses indicated for the individual study; for the combination studies the selected reference chemotherapy agents were injected 15-30 min prior to the NPI compound.
# Female nude mice were injected in the mammary fat pad with 2×10^6 MDA-231 cells harvested from in vitro cell culture. When the tumor size reached 5 mm×5 mm (about 14-28 days) the animals were matched into treatment and control groups. The study then proceeded as described for the HT-29 model, using paclitaxel as the standard chemotherapy agent.
# In this model unless otherwise noted for the individual study, the test compounds were administered via the intraperitoneal route on Days 1, 4, 8, 11 and 15 (q3dx5); paclitaxel was administered via the intraperitoneal route on Days 1-5 (qdx5).
# This model involves the placement of the human tumor tissue into the mouse mammary fat pad, a surrogate of the natural environment. In this manner the possibility of a positive effect due to a specific action on the subcutaneous vascular bed is avoided.
# [6] = test system: B16-F10 murine melanoma cells; test: B16-F10 Metastatic Murine Melanoma Model; type: in vivo, B6D2F1 mice; details: monotherapy, lung surface metastases day 16
# Method: as §3, §4, §5
# Mice received B16-F10 cells (prepared from an in vitro cell culture of B16-F10 cells) by the iv route on Day 0. On Day 1 mice were randomized into treatment and control groups and treatment commenced. Mice were weighed twice weekly, starting on Day 1. All mice are sacrificed on Day 16, the lungs removed, weighed and the surface colonies counted. Results are expressed as mean colonies of treated mice/mean colonies of control mice (T/C)×100%). The metastasis growth inhibition (MGI) is this number subtracted from 100%. Paclitaxel was the standard chemotherapy agent used in this study.
# In this model unless otherwise noted for the individual study, the test compounds were administered via the intraperitoneal route on Days 1-5 (qdx5); paclitaxel was administered intravenously on Days 1-5(qdx5).
# [7] = test system: MES-SA/Dx5 multidrug resistant; test: Cell growth inhibition assay, resazurin (Example 11); type: cell-based, human
# Method: (§6) Human uterine sarcoma (MES-SA; CRL-1976), its multidrug resistant derivative (MES-SA/Dx5; CRL-1977), human acute promyelocytic leukemia cells (HL-60; CCL-240) and its multidrug resistant derivative (HL-60/MX2; CRL-2257) were purchased from ATCC and maintained in appropriate culture media. The cells were cultured in an incubator at 37° C. in 5% CO2 and 95% humidified air.
# (§7) For cell growth inhibition assays, MES-SA and MES-SA/Dx5 cells were both seeded at 3×10^3 cells/well in 90 μl complete media into 96 well (Corning; 3904) black-walled, clear-bottom tissue culture plates and the plates were incubated overnight to allow cells to establish and enter log phase growth. HL-60 and HL-60/MX2 cells were both seeded at 5×10^4 cells/well in 90 μl complete media into 96 well plates on the day of compound addition. 20 mM stock solutions of the compounds were prepared in 100% DMSO and stored at −80° C. […] Ten μl volumes of the 10× serial dilutions were added to the test wells in triplicate and the plates returned to the incubator for 48 hours. The final concentration of DMSO was 0.25% in all samples.
# as §2, with “exposure,” for “exposure”, “phosphate buffered saline” for “PBS”, “3-6” for “3-4”, “dye in medium” for “dye”, “wells.” for “wells. The data were analyzed using Prism software (GraphPad Software).”
# (§8) The multidrug resistant MES-SA/Dx5 tumor cell line was derived from the human uterine sarcoma MES-SA tumor cell line and expresses elevated P-Glycoprotein (P-gp), an ATP dependent efflux pump. The data in Table 19 summarize the growth inhibitory effects of NPI-2421, NPI-2463, NPI-2503, NPI-2504 and NPI-2506 against MES-SA and its multidrug resistant derivative MES-SA/Dx5. Paclitaxel, a known substrate of the P-gp pump was included as a control.
# [8] = test system: MES-SA human uterine sarcoma; test: as above; type: cell-based; details: mean ± standard deviation of three independent experiments
# Method: as §6, §7
# as §2, with “exposure,” for “exposure”, “phosphate buffered saline” for “PBS”, “3-6” for “3-4”, “dye in medium” for “dye”, “wells.” for “wells. The data were analyzed using Prism software (GraphPad Software).”
# as §8
# [9] = test system: A549 human non small cell lung tumor; test: A549 Human Lung Tumor Xenograft Model; type: in vivo, nude mice
# Method: (§9) Animals used were (exceptions are indicated for individual studies): female nude mice (nu/nu) between 5 and 6 weeks of age (˜20 g, Harlan); group size was 9-10 mice per group unless otherwise indicated.
# (§10) Selected novel compounds were administered as monotherapy via the intraperitoneal (i.p.) route at the doses indicated for the individual study; for the combination studies the selected reference chemotherapy agents were injected 15-30 min prior to the compound.
# (§11) Saline dilutions are used to achieve the injection concentrations used for the reference compounds.
# Animals were implanted s.c. by trocar with fragments of A549 tumors harvested from s.c. growing tumors in nude mice hosts. When the tumor size reached 5 mm×5 mm (about 10-17 days) the animals were matched into treatment and control groups.
# MCF-7 human breast tumor = test: MCF-7 Human Breast Tumor Xenograft Model; type: in vivo, nude mice; details: Breast MCF-7 (2 studies); Taxotere Days 1, 3, 5 alone
# Method: as §9, §10, §11
# Female nude mice (˜20 g) were implanted s.c. with 21-day release estrogen (0.25 mg) pellets 24 hours prior to the s.c. implantation with MCF-7 tumor fragments (harvested from s.c. tumors in nude mice hosts). The study then proceeded as described for the HT-29 model, using taxotere as the standard chemotherapy agent.
# In this model unless otherwise noted for the individual study, the novel compounds were injected via the intraperitoneal route daily on Days 1-5, inclusive (qdx5); taxotere was administered intravenously on Days 1, 3 and 5 (qodx3).
# The doses of the compounds were administered on Days 1, 2, 3, 4, and 7; Taxotere was administered on Days 1, 3 and 7.
# [10] = test system: DU-145 human prostate tumor; test: DU-145 Human Prostate Tumor Xenograft Model; type: in vivo, nude mice; details: taxotere alone
# Method: When the tumors reached 5 mm×5 mm (at about 13-17 days) the animals were matched into treatment and control groups.
# In this model unless otherwise noted for the individual study, test compounds were administered via the intraperitoneal route on Days 1, 3, 5, 8 and 11 (q3dx5); taxotere was administered intravenously on Days 1, 3 and 5 (q2dx3).
# [11] = test system: HL-60/MX2 multidrug resistant; test: Cell growth inhibition assay, resazurin (Example 11); type: cell-based, human
# Method: as §6, §7
# as §2, with “exposure,” for “exposure”, “phosphate buffered saline” for “PBS”, “3-6” for “3-4”, “dye in medium” for “dye”, “wells.” for “wells. The data were analyzed using Prism software (GraphPad Software).”
# HL-60/MX2 is a multidrug resistant tumor cell line derived from the human promyelocytic leukemia cell line, HL-60 and expresses reduced topoisomerase II activity. The data presented in Table 20 summarize the growth inhibitory effects of NPI-2421, NPI-2463, NPI-2503, NPI-2504 and NPI-2506 against HL-60 and its multidrug resistant derivative HL-60/MX2. Mitoxantrone, the topoisomerase II targeting agent was included as a control.
# Jurkat cells = test: cells; type: cell-based
# [12] = test system: HL-60/MX-2 (Mitoxantrone-Resistant); test: Drug resistant cell line pair, cytotoxicity (Example 10B); type: cell-based, human; details: HL-60 Resistant IC50 relative to HL-60 Sensitive
# Source text: 2) Human Acute Promyelocytic Leukemia Cell Line Pair: HL-60 (Mitoxantrone-Sensitive) and HL-60/MX-2 (Mitoxantrone-Resistant)
# [13] = test system: MES-SA/Dx5 (Taxol Resistant) human uterine sarcoma; test: as above; type: cell-based; details: vs MES-SA
# Source text: 1) Human Uterine Sarcoma Tumor Cell Line Pair: MES-SA (Taxol Sensitive) and MES-SA/Dx5 (Taxol Resistant).
# [14] = Lung A549 (1 study), Taxotere Days 1, 3, 5 alone
# Method for human hepatic P450s: In the recent his study, (±)-phenylahistin was treated with rat hepatic microsome or human hepatic P450s.
compound,measurement,setting,value
"C=CC(C)(C)c1[nH]cnc1/C=c1\[nH]c(=O)/c(=C/c2ccccc2)[nH]c1=O [KPU-1, Dehydrophenylahistin]",MIC,Aspergillus fumigatus; A. fumigatus isolate #1,> 16 µg/mL
same,MIC,Aspergillus fumigatus; A. fumigatus isolate #2,> 16 µg/mL
same,antifungal potency versus T. rubrum,Trichophyton rubrum,significantly less potent than the other compounds
same,MIC,Candida glabrata,> 68 µg/mL
same,MIC,Candida albicans,> 68 µg/mL
same,IC50,[1],36 ± 12.8 nM
same,EC50,[2],4.7 nM
same,DNA laddering potency compared with KPU-2,[3],much less potent
same,EC50,"HT-29 human colon cells; Homo sapiens, HT-29, Table 2, read-out: EC50 (nM) HT-29",48 nM
same,EC50,"HT-29 human colon cells; Homo sapiens, HT-29, Table 5, synthetic potent dehydroPLH derivatives, read-out: EC50",48 nM
same,EC50,"HT-29 human colon cells; Table 6, proliferation of HT-29 cells, read-out: EC50",48 nM
same,antifungal potency versus the sensitive T. mentagrophytes isolate,[4],weaker but more comparable to the others
"CC(=O)O[C@H]1C(=O)[C@@]2(C)[C@H]([C@H](OC(=O)c3ccccc3)[C@]3(O)C[C@H](OC(=O)[C@H](O)[C@@H](NC(=O)c4ccccc4)c4ccccc4)C(C)=C1C3(C)C)[C@]1(OC(C)=O)CO[C@@H]1C[C@@H]2O [Paclitaxel, reference compound]",Tumor Growth Inhibition (%) Reference Agent,[5],53%
same,Tumor Regression (#/total) Reference Agent,[5],1/10
same,MGI (metastasis growth inhibition),[6],35.0%
same,EC50,"[7]; Homo sapiens, MES-SA/Dx5, mean ± standard deviation of three independent experiments",2000 ± 150 nM
same,Fold change,[7]; ratio of EC50 values (MES-SA/Dx5:MES-SA),417
same,less active against the resistant MES-SA/Dx5 cells,[7]; vs MES-SA,~400 times
same,EC50,[8],4.8 ± 2.1 nM
"CC(=O)O[C@@]12CO[C@@H]1C[C@H](O)[C@@]1(C)C(=O)[C@H](O)C3=C(C)[C@@H](OC(=O)[C@H](O)[C@@H](NC(=O)OC(C)(C)C)c4ccccc4)C[C@@](O)([C@@H](OC(=O)c4ccccc4)[C@H]21)C3(C)C [Taxotere, reference compound]",Tumor Growth Inhibition (%) Reference Agent,[9]; [14],26%
same,Tumor Regression (#/total) Reference Agent,[9]; [14],0/10
same,TGI,[9]; taxotere alone,26.1%
same,Tumor Regression (#/total) Reference Agent,MCF-7 human breast tumor,0/20
same,TGI vs NCI criterion,[10],did not reach the NCI established criterion for a positive effect
"O=C1c2c(O)ccc(O)c2C(=O)c2c(NCCNCCO)ccc(NCCNCCO)c21 [mitoxantrone, Mitoxantrone, reference compound]",Fold change,[11]; ratio of EC50 values (HL-60/MX2:HL-60),26
same,less active against the resistant HL-60/MX2 cells,[11]; vs HL-60,~26 times
same,IC50,"Jurkat cells; Homo sapiens, Jurkat, read-out: Cytotoxicity Potency IC50",41 nM
same,Cytotoxicity Efficacy % Cell Death,Jurkat cells; human,99%
same,Ratio to Sensitive,[12],24.1
same,reduced susceptibility of the MES-SA/DX5 cell line,[13],20 fold
(±)-phenylahistin,"major metabolites P1 and P3, share of the recovered metabolites",human hepatic P450s,more than 60%
same,metabolites detected,human hepatic P450s,at least seven metabolites were detected
